Measured values as given in BindingDB's records for patent US11466047 (Merck Sharp & Dohme, 2022).

Target: T1, Stimulator of interferon genes protein [R71H,G230A,H232R,R293Q] (Homo sapiens, UniProt Q86WV6, G230A/H232R/R293Q/R71H)
T1 construct: gene STING1
Assay: 3H-cGAMP Filtration Binding Assay
Experimental: The compounds were serially titrated by the Hamilton STARPlus CORE in a 96-well plate (Greiner, #651201) using a 1:3 ten-point dose response format. After compound preparation, a 2.2 ug/ml working concentration of STING membrane (SEQ. ID. No. 1) was prepared by diluting concentrated membrane into assay buffer (lx PBS; Invitrogen #SH30028.02) and douncing 7× using a manual tissue homogenizer (Wheaton, #357546). 148 uL of prepared membrane was then manually added to each well of a 96-well deep-well polypropylene plate (Fisher Scientific, #12-566-121). Following membrane addition, 2 uL of either titrated test compound, DMSO control (Sigma #276855), or cold cGAMP control was added to the appropriate wells using a BIOMEK FX. Compound and membrane then preincubated for 60 min at RT to allow compound binding to equilibrate. Following equilibration, 8 nM of [3H]c-GAMP ligand was prepared by diluting into assay buffer, and 50 uL of this working stock was then manually added to each well of the assay plate. Plates were then incubated at RT for 60 min, and the contents of each assay plate were then filtered through a 96-well GF/B filter plate (PerkinElmer, #6005250) using a TOMTEC MACH III Cell Harvester equipped with 20 mM HEPES buffer (Fisher Scientific, #BP299500). […] Tritium levels for each reaction well were then measured using a PerkinElmer TopCount plate reader.

T1 sequence (Q86WV6 whole entry R71H/G230A/H232R/R293Q, looked up): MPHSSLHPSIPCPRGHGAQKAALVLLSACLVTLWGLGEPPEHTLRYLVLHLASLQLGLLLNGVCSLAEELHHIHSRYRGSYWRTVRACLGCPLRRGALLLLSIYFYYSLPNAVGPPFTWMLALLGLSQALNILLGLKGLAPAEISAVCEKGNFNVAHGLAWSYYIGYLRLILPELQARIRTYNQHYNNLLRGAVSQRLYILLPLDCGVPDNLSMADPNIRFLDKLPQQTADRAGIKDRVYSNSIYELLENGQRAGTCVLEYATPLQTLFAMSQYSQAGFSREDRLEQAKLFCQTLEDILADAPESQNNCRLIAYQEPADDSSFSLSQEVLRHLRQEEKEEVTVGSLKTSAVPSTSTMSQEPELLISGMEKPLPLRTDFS

Nc1nc2c(ncn2[C@@H]2O[C@@H]3COP(=S)(S)O[C@H]4[C@H](F)[C@H](n5cnc6c(=O)[nH]cnc65)O[C@@H]4COP(O)(=S)O[C@@H]2[C@@H]3F)c(=O)[nH]1 (stereo partly specified) [US11466047, Example 27]
EC50: < 1 nM
